Laboratory results: patent publication US20250289793A1, “MACROCYCLIC INHIBITORS OF ATP CITRATE LYASE” (Esperion Therapeutics, Inc., priority 2022, published 2025)
Like-named read-outs stand apart in the source and are kept apart here.

Columns and labels:
[1] = from COc1c(Cl)cc(C(=O)O)cc1S(=O)(=O)Cc1cc(-c2ccccc2OCCN)c(F)cc1F; amide bond; 15-membered ring; T3P/DIPEA; DMF; 48.0 mM; 21.0 h
[2] = tested on: HepG2 cells; test: Fatty acid synthesis (FAS) assay in HepG2 cells; type: cell-based; conditions: Homo sapiens, 1.5 h, 14C-citrate 50 μM, 90 min, read-out: FAS IC50 GMean
Experimental: HepG2 cells were seeded into white clear-bottom 96-well plates (50,000/well) coated with collagen and incubated at 37° C. for 16-24 hours. Thereafter the plates were washed once with 100 μL PBS (+CaCl2+MgCl2) and 50 μL assay medium ([…] containing 11 mM glucose, 10 mM HEPES and 1 nM Insulin) per well was added. Test substances in assay medium were added (10 μL, 0.5% DMSO) and incubated for 20 min at 37° C. After that 10 μL assay medium containing ^14C-citrate (final concentration 50 μM) and PrestoBlue reagent (lx final concentration; ThermoFisher) were added and incubated for 90 min (37° C., 5% CO2). Cell viability was measured (Multiskan FC, microplate reader, absorbance 570 nm). Medium was removed by inverting the plate and cells were washed once with 100 μL ice-cold PBS. Cells were lysed with 50 μL lysis buffer (0.1 N NaOH, 0.1% Triton X-100) and plate was sealed with Tape Pads and vortexed. For the saponification reaction plates were incubated for 16-24 hours at 80° C. Seals were removed and 200 μL 0.1 N HCl was added for neutralisation of the pH. 150 μL from each well was transferred into the corresponding wells of a 96-well Flash plate (Perkin Elmer) and sealed with TopSeal A (Perkin Elmer). Plates were incubated for 4 h at 70° C., and for 1 h at room temperature in the dark. Signal of ^14C radioactivity was measured (TopCount). As a positive control 5 mM unlabelled citrate or C75 (Sigma, C5490) was applied.

[3] = target: T1, ACLY (Homo sapiens (Human), UniProt P53396); test: Human ACLY (hACLY) RF/MS activity assay; type: biochemical; conditions: 1 nM hACLY; 30 min pre-incubation; 15 μM Coenzyme A, 50 μM ATP, 50 μM citrate; CoA to Acetyl-CoA by RF/MS; read-out: RFMS IC50 GMean
T1 sequence (P53396 whole entry): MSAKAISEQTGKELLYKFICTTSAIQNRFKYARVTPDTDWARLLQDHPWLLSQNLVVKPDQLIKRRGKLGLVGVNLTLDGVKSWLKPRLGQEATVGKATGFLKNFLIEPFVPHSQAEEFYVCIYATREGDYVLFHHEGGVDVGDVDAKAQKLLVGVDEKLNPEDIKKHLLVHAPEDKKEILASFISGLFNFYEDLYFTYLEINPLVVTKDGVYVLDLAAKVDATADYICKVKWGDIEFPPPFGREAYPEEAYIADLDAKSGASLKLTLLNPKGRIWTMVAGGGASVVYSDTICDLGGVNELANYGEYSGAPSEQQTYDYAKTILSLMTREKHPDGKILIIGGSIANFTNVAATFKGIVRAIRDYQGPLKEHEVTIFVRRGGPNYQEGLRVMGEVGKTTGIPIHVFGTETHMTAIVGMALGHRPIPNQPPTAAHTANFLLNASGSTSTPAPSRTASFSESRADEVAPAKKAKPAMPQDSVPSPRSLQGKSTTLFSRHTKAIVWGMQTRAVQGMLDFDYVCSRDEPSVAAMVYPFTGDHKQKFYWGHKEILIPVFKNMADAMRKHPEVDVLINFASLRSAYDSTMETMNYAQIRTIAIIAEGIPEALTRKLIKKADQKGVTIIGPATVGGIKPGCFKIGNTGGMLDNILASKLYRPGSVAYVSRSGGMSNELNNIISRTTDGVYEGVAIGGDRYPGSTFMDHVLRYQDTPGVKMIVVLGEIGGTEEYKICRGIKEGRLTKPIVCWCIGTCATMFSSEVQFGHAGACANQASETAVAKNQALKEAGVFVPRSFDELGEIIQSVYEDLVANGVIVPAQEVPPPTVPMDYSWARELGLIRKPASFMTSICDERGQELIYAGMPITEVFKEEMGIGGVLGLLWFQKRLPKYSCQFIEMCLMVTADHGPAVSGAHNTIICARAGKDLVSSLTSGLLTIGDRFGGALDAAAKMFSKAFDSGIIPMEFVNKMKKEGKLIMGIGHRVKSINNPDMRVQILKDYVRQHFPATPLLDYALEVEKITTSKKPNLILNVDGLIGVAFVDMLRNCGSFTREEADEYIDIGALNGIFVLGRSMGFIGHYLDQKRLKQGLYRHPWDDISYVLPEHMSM
Method in brief: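 RapidFire MS read CoA-to-acetyl-CoA conversion as a substrate/product ratio after 30 min at RT (20° C) with final 15 μM CoA, 50 μM ATP, 50 μM citrate. Before substrate addition, 1 nM enzyme sat 30 min with compound (top 10 μM, two-fold dilutions; 1% DMSO) in pH 8.0 Hepes/MgCl2/NaCl/DTT buffer.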

[4] = target: Recombinant human ACLY full length protein (Homo sapiens (Human), UniProt P53396); test: hACLY ADP-Glo activity assay; type: biochemical; conditions: 0.5 nM ACLY; 15 μM sodium citrate, 1 μM coenzyme A, 80 μM ATP; ADP formed, luminescence; read-out: ADP-Glo IC50 GMean
Recombinant human ACLY full length protein, sequence (P53396 whole entry): as above
Experimental: Compounds of the disclosure were evaluated for their efficacy in inhibiting hACLY using an ADP-Glo™ assays that measure ADP formed from the enzymatic activity of hACLY.
Test compounds were 3-fold serially diluted in DMSO over 11-point concentration range and dispensed onto a 384-well plate. Recombinant human ACLY full length protein was purified. Concentrations of ACLY protein, sodium citrate, coenzyme A, and ATP in the reaction were optimized for standardized homogenous enzyme assay using ADP-Glo™ Kinase (Promega Inc.). The assay measured ADP formed from the enzymatic reaction.
The reaction buffer consisted of the assay buffer (50 mM HEPES pH 8.0, 10 mM MgCl2, 4 mM 1,4-Dithiothreitol, 0.01% Brij® 35).
ACLY protein (0.5 nM) was added to the prepared reaction buffer, and the mixture was dispensed into the assay plate and incubated for 30 minutes at room temperature. Next, 15 μM sodium citrate, 1 μM coenzyme A, and 80 μM ATP were added into the assay plate and incubated for 60 minutes at room temperature. The final reaction volume for each well was 5 μL.
5 μL of ADP-Glo™ reagent was added, and the mixture was incubated for 40 minutes at room temperature. 10 μl ADP-Glo™ detection reagent was added, and the mixture was incubated for 30 minutes at room temperature. Luminescence was determined using EnVision microplate reader with ultra-luminescence module (Perkin Elmer Inc). Concentration-response curve-fitting and IC50 determination was performed using Xlfit Software (version 5.5.0) with a four-parameter logistic regression fit model.

[5] = target: T1, ACLY; test: InCell Pulse assay (permeate HEK293 cells, bind to and stabilize ACLY); type: cell-based; conditions: HEK293 cells transfected with pICP-ACLY(FL)-ePL; 1 hour at 37° C., 55° C. heat pulse 10 minutes; read-out: InCell Pulse IC50 GMean
Method in brief: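 HEK293 cells transiently expressing full-length ACLY-ePL were exposed in OptiMEM to 11-point, 3-fold compound dilutions for 1 h at 37 °C, heat-pulsed 10 min at 55 °C, then lysed for enzyme-fragment complementation luminescence. Four-parameter fit, normalised to 0.5% DMSO and 1 μM NDI-094311.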

[6] = 15-membered ring

Row | Compound | ring closure, crude yield [1] [%] | IC50 [2] [nM] | IC50 [3] [nM] | IC50 [4] [nM] | IC50 [5] [nM] | ring closure, yield after HPLC ([6]; from COc1c(Cl)cc(C(=O)O)cc1S(=O)(=O)Nc1cc(-c2ccccc2OCCO)c(F)cc1F, ester bond, 2,4,6-trichlorobenzoyl chloride/DIEA/DMAP, THF, 13.1 mM, 65.0 °C, 4.0 h) [%] | ring closure, yield after HPLC ([6]; from 3-[[5-[2-(2-aminoethoxy)phenyl]-2,4-difluoro-phenyl]sulfamoyl]-5-chloro-4-(difluoromethoxy)benzoic acid·HCl, amide bond, T3P/DIPEA, DMF, 18.1 mM) [%]
1 | COc1c(Cl)cc2cc1S(=O)(=O)Cc1cc(c(F)cc1F)-c1ccccc1OCCNC2=O | 81 | – | – | – | – | – | –
2 | O=C1NCCCc2ccccc2-c2cc(c(F)cc2F)NS(=O)(=O)c2cc1cc(Cl)c2O [Compound 8, 15-chloro-21,23-difluoro-16-hydroxy-18lambda6-thia-11,19-diazatetracyclo[18.3.1.1^13,17.0^2,7]pentacosa-1(24),2,4,6,13,15,17(25),20,22-nonaene-12,18,18-trione] | – | 10000 to 50000 | 20 to 100 | 1 to 10 | 300 to 1000 | – | –
3 | O=C1NCCOc2ccccc2-c2cc(c(F)cc2F)NS(=O)(=O)c2cc1cc(Cl)c2O [Compound 2, 15-chloro-21,23-difluoro-16-hydroxy-8-oxa-18lambda6-thia-11,19-diazatetracyclo[18.3.1.1^13,17.0^2,7]pentacosa-1(24),2,4,6,13,15,17(25),20,22-nonaene-12,18,18-trione] | – | ≥ 50000 | 20 to 100 | 1 to 10 | 1000 to 50000 | – | –
4 | COc1c(Cl)cc2cc1S(=O)(=O)Nc1cc(c(F)cc1F)-c1ccccc1OCCOC2=O | – | – | – | – | – | 18 | –
5 | CN1c2cc(c(F)cc2F)-c2ccccc2OCCNC(=O)c2cc(Cl)c(O)c(c2)S1(=O)=O [Compound 9, 15-chloro-21,23-difluoro-16-hydroxy-19-methyl-8-oxa-18lambda6-thia-11,19-diazatetracyclo[18.3.1.1^13,17.0^2,7]pentacosa-1(24),2,4,6,13,15,17(25),20,22-nonaene-12,18,18-trione] | – | ≥ 50000 | ≥ 10000 | ≥ 1000 | ≥ 50000 | – | –
6 | CN1CCOc2ccccc2-c2cc(c(F)cc2F)NS(=O)(=O)c2cc(cc(Cl)c2O)C1=O [Compound 4, 15-chloro-21,23-difluoro-16-hydroxy-11-methyl-8-oxa-18lambda6-thia-11,19-diazatetracyclo[18.3.1.1^13,17.0^2,7]pentacosa-1(24),2,4,6,13,15,17(25),20,22-nonaene-12,18,18-trione] | – | 10000 to 50000 | 20 to 100 | 1 to 10 | 1000 to 50000 | – | –
7 | O=C1NCCOc2ccccc2-c2cc(c(F)cc2F)NS(=O)(=O)c2cc1cc(Cl)c2OC(F)F [Compound 15, 15-chloro-16-(difluoromethoxy)-21,23-difluoro-8-oxa-18lambda6-thia-11,19-diazatetracyclo[18.3.1.1^13,17.0^2,7]pentacosa-1(24),2,4,6,13,15,17(25),20,22-nonaene-12,18,18-trione] | – | 2000 to 10000 | ≥ 10000 | ≥ 1000 | ≥ 50000 | – | 48
8 | O=C1OCCCc2ccccc2-c2cc(c(F)cc2F)NS(=O)(=O)c2cc1cc(Cl)c2O [Compound 16, 15-chloro-21,23-difluoro-16-hydroxy-11-oxa-18lambda6-thia-19-azatetracyclo[18.3.1.1^13,17.0^2,7]pentacosa-1(24),2,4,6,13,15,17(25),20,22-nonaene-12,18,18-trione] | – | < 2000 | 20 to 100 | < 1 | < 300 | – | –
